The record followed here is patent US8426386B2, “NK1 receptor antagonist composition” (Lion Corporation, priority 2006, dated 2013).

In the assay the test system is NK1 receptor. Description: NK1 Receptor Antagonism Assay (calcium imaging, substance P stimulation). The format is cell-based, human. To be noted: for efficacy at a low concentration (in words): 0.1 ppm; for effect as the NK1 receptor antagonist (in words): summary of Table 1. From the text:
[Performance Evaluation Test] NK1 Receptor Antagonism Assay
In this test, maltose, maltotriose, maltotetraose, maltopentaose, maltohexaose and maltoheptaose were purchased from SIGMA, isomaltose, isomaltotriose, isomaltotetraose, isomaltopentaose, isomaltohexaose and isomaltoheptaose were purchased from Seikagaku Corporation, and four types of oligosaccharides-1-kestose, fructofranosylnystose, nystose and galactotetraose—were purchased from Wako Pure Chemicals Industries Ltd. Each oligosaccharide was diluted with saline, and used.
In order to transiently express a cloned human NK1 receptor in HEK293, cDNA of the human NK1 receptor was cut out from pCDM8 (Invitrogen), and cloned in an expression vector pCDM9 derived by inserting an ampicillin resistant gene (BLUESCRIPT, nucleotides 1973 to 2964 from SK+) at a SacII site.
HEK293 cells were seeded at 1×10^5 cells in a Falcon dish (diameter: 3.5 cm) using α-MEM medium (Gibco) containing 10% bovine fetal serum, and cultured in a 5% CO2 incubator at 37° C. overnight. Then, 20 μg of the expression vector was transfected using Transfection Reagent FuGENE6 (Roche) according to attached instructions, and the transfectants were incubated at 37° C. for 3 days and assayed by a calcium imaging method.
According to Renganathan et al's method (Renganathan M et al., J. Neurophysiol., 84(2), […] (2000)), nerve cells were dispersed and isolated from spinal dorsal root ganglion in a wild type mouse, and 1×10^5 thereof were seeded in a 24-well plate coated with poly-L-lysine. The cells were cultured in 90% DMEM medium (GIBCO) supplemented with 10% bovine fetal serum, 2 mM glutamine, 100 U/mL of penicillin/streptomycin, 100 ng/mL of NGF (SIGMA) and 5 μM cytosine arabinoside (SIGMA) under 5% CO2 at 37° C. The cells were cultured for 1 to 3 weeks, and subsequently subjected to a calcium imaging analysis. A half of the nerve cells was identified to be positive for the NK1 receptor by staining the nerve cells derived from spinal dorsal root ganglion in the wild type mouse with an anti-NK1 receptor antibody (supplied from CHEMICON International).
The cells which express the NK1 receptor transiently or constitutively were subjected to measurement using a high resolution digital B/W cooling CCD camera (ORCA supplied from Hamamatsu Photonics K.K.), and their images were analyzed using an analysis software (AQUA COSMOS supplied from Hamamatsu Photonics K.K.). When the cells were labeled for calcium, Fluo4-AM (supplied from Molecular Probe) was used as a calcium sensitive dye. Fifty μg of Fluo4-AM was dissolved in 400 μL of DMSO in a vial, 4 μL of Pluronic F-127 (Molecular Probe) was added and mixed, and then 4 mL of OPTI-MEM (GIBCO) was added thereto. The calcium sensitive dye solution thus prepared was added to the cells, which were then incubated at 37° C. for 60 minutes. An agonist, an antagonist and samples to be evaluated were prepared at concentrations which were 10 times higher than assay concentrations, and analyzed by adding a one tenth volume of the cell suspension upon analysis. All reagents and an assay temperature were kept at 37° C. For the cells transfected transiently, YFP reporter DNA fluorescence (excitation: 490 nm) was used for identifying the transfected cells. Upon measurement, a fluorescence intensity obtained by initially imaging the untreated cells was made an initial value. After passing one minute, a change of calcium/fluorescence intensity in the sample to be evaluated at the desired concentration was monitored with an interval of one second before and after the addition (2 to 5 minutes). Subsequently, substance P was added, and immediately after (2 to 5 minutes), an antagonistic activity of the sample to be evaluated was determined by monitoring the change of intracellular calcium concentrations as the change of the fluorescence intensities with the interval of one second. […]

The mark [1] stands for this setting: evaluated concentration 0.1 ppm, substance P 100 μM.
[2] abbreviates: evaluated concentration 1 ppm, substance P 100 μM.
The mark [3] stands for this setting: evaluated concentration 10 ppm, substance P 100 μM.
[4] abbreviates: evaluated concentration 100 ppm, substance P 100 μM.
The mark [5] stands for this setting: evaluated concentration 1000 ppm, substance P 100 μM.

With `OC[C@H]1O[C@H](O[C@H]2[C@H](O)[C@@H](O)[C@@H](O[C@H]3[C@H](O)[C@@H](O)[C@@H](O[C@H]4[C@H](O)[C@@H](O)C(O)O[C@@H]4CO)O[C@@H]3CO)O[C@@H]2CO)[C@H](O)[C@@H](O)[C@@H]1O` (some centres unmarked) [Maltotetraose, maltotetraose], the “efficacy at a low concentration (in words)” value is on record as “high efficacy” and the “effect as the NK1 receptor antagonist (in words)” value (“effect” for short) was “high effect”. In addition, the “Efficacy (NK1 receptor antagonistic activity grade)” value under setting [1] is “B (Effective: the antagonistic activity was 65% or more and less than 75% and the more excellent performance than in the positive control was shown.)”. For the same molecule, the “Efficacy (NK1 receptor antagonistic activity grade)” value under setting [2] is “A (Complete response: the antagonistic activity was 75% or more and much more excellent performance than in the positive control was shown.)”. Moreover, the “Efficacy (NK1 receptor antagonistic activity grade)” value under setting [3] is “A (Complete response: the antagonistic activity was 75% or more and much more excellent performance than in the positive control was shown.)”. The “Efficacy (NK1 receptor antagonistic activity grade)” value under setting [4] was “A (Complete response: the antagonistic activity was 75% or more and much more excellent performance than in the positive control was shown.)”. Moreover, the “Efficacy (NK1 receptor antagonistic activity grade)” value under setting [5] was “A (Complete response: the antagonistic activity was 75% or more and much more excellent performance than in the positive control was shown.)”.
`OC[C@H]1O[C@@](CO)(OC[C@@]2(OC[C@@]3(O[C@H]4O[C@H](CO)[C@@H](O)[C@H](O)[C@H]4O)O[C@H](CO)[C@@H](O)[C@@H]3O)O[C@H](CO)[C@@H](O)[C@@H]2O)[C@@H](O)[C@@H]1O` [Nystose, nystose, reference compound]: the “effect” value is “no NK1 receptor antagonistic activity was observed at all”. The “Efficacy (NK1 receptor antagonistic activity grade)” value under setting [5] was “D (Ineffective: the antagonistic activity was less than 65%, or the stimulating or agonistic activity of the sample was strong.)”.
As to “SPANTIDE II: standard substance SPANTIDE II (peptidic analog of substance P), positive control (SPANTIDEII) [reference compound]”, the “NK1 receptor antagonistic activity” value (positive control, 100 ppm (Table 1), substance P 100 μM) is listed as 65%.
Regarding maltoheptaose, the “effect” value was “high effect”. Also, the “Efficacy (NK1 receptor antagonistic activity grade)” value under setting [1] is given as “D (Ineffective: the antagonistic activity was less than 65%, or the stimulating or agonistic activity of the sample was strong.)”. In addition, the “Efficacy (NK1 receptor antagonistic activity grade)” value under setting [2] is “C (Slightly effective: the antagonistic activity was less than 65%, and a stimulating or agonistic activity of the sample was weak.)”. For the same molecule, the “Efficacy (NK1 receptor antagonistic activity grade)” value under setting [3] is “C (Slightly effective: the antagonistic activity was less than 65%, and a stimulating or agonistic activity of the sample was weak.)”. Also, the “Efficacy (NK1 receptor antagonistic activity grade)” value under setting [4] was “B (Effective: the antagonistic activity was 65% or more and less than 75% and the more excellent performance than in the positive control was shown.)”. Also, the “Efficacy (NK1 receptor antagonistic activity grade)” value under setting [5] was “B (Effective: the antagonistic activity was 65% or more and less than 75% and the more excellent performance than in the positive control was shown.)”.
With maltohexaose, the “effect” value was “high effect”. In addition, under setting [1], the “Efficacy (NK1 receptor antagonistic activity grade)” value is “C (Slightly effective: the antagonistic activity was less than 65%, and a stimulating or agonistic activity of the sample was weak.)”. Besides, the “Efficacy (NK1 receptor antagonistic activity grade)” value under setting [2] was “C (Slightly effective: the antagonistic activity was less than 65%, and a stimulating or agonistic activity of the sample was weak.)”. For the same molecule, the “Efficacy (NK1 receptor antagonistic activity grade)” value under setting [3] is “B (Effective: the antagonistic activity was 65% or more and less than 75% and the more excellent performance than in the positive control was shown.)”. Also, the “Efficacy (NK1 receptor antagonistic activity grade)” value under setting [4] is “B (Effective: the antagonistic activity was 65% or more and less than 75% and the more excellent performance than in the positive control was shown.)”. Further, the “Efficacy (NK1 receptor antagonistic activity grade)” value under setting [5] is “B (Effective: the antagonistic activity was 65% or more and less than 75% and the more excellent performance than in the positive control was shown.)”.
For maltopentaose, the “efficacy at a low concentration (in words)” value is on record as “high efficacy” and the “effect” value is on record as “high effect”. The “Efficacy (NK1 receptor antagonistic activity grade)” value under setting [1] is “B (Effective: the antagonistic activity was 65% or more and less than 75% and the more excellent performance than in the positive control was shown.)”. The “Efficacy (NK1 receptor antagonistic activity grade)” value under setting [2] was “B (Effective: the antagonistic activity was 65% or more and less than 75% and the more excellent performance than in the positive control was shown.)”. Further, the “Efficacy (NK1 receptor antagonistic activity grade)” value under setting [3] was “B (Effective: the antagonistic activity was 65% or more and less than 75% and the more excellent performance than in the positive control was shown.)”. For the same molecule, the “Efficacy (NK1 receptor antagonistic activity grade)” value under setting [4] is “A (Complete response: the antagonistic activity was 75% or more and much more excellent performance than in the positive control was shown.)”. Also, the “Efficacy (NK1 receptor antagonistic activity grade)” value under setting [5] was “A (Complete response: the antagonistic activity was 75% or more and much more excellent performance than in the positive control was shown.)”.
For maltotriose, the “effect” value is recorded as “high effect”. Besides, under setting [1], the “Efficacy (NK1 receptor antagonistic activity grade)” value is “C (Slightly effective: the antagonistic activity was less than 65%, and a stimulating or agonistic activity of the sample was weak.)”. For the same molecule, under setting [2], the “Efficacy (NK1 receptor antagonistic activity grade)” value was “C (Slightly effective: the antagonistic activity was less than 65%, and a stimulating or agonistic activity of the sample was weak.)”. For the same molecule, the “Efficacy (NK1 receptor antagonistic activity grade)” value under setting [3] was “C (Slightly effective: the antagonistic activity was less than 65%, and a stimulating or agonistic activity of the sample was weak.)”. Besides, the “Efficacy (NK1 receptor antagonistic activity grade)” value under setting [4] was “B (Effective: the antagonistic activity was 65% or more and less than 75% and the more excellent performance than in the positive control was shown.)”. Under setting [5], the “Efficacy (NK1 receptor antagonistic activity grade)” value was “A (Complete response: the antagonistic activity was 75% or more and much more excellent performance than in the positive control was shown.)”.
